The text below walks through data of patent US20190018003A1, “TUMOR DISCRIMINATION METHOD, DIAGNOSTIC AGENT FOR TUMOR, AND SENSITIZER FOR TUMOR DIAGNOSIS” (TOTO LTD., priority 2017, published 2019).

Common to all, as to type: cell-based, human
Assay [1] concerns T24 urinary bladder cancer cells. As to the kind of experiment: Co-culture in the same visual field, fluorescence of T24 cell region. The note with it: Example 11, T24 cell line, ALA 2 mmol/l, particles 0.001 w/v %. An excerpt: (§1) Co-culture pertaining to the present example for having the tumor cells and the immortalized normal cells exist in the same visual field will be described with reference to FIGS. 1A and 1B. For the co-culture, there was used CytoSelect™ 24-Well Cell Co-Culture System (manufactured by COSMO BIO). The T24 cell line was subcultured in an MEM medium (MEM, GlutaMAX™ supplement (Thermo Fisher Scientific), 10 v/v % FBS (Thermo Fisher Scientific)). The cultured cells which reached a logarithmic growth phase 3 days or 4 days later were peeled off with Trypsin/EDTA (Thermo Fisher Scientific) and, after the reaction was terminated in an MEM medium, centrifuged. The cell pellet obtained was suspended in an MEM medium. The cell suspension was subjected to measurement of cell density and inoculated onto a well at a density of 4.4×10^4 cells/0.225 ml/well, the well having an insert 2 of an 8 mm diameter disposed for preparing a cell-free region therein, and cultured for 2 days to form a monolayer in region 3 around the insert 2.
(§2) WI-38 cells were subcultured in an MEM medium. […]
(§3) Detection of fluorescence was performed in the same manner as in Example 4 by using an inverted fluorescence microscope (ECLIPSE Ti-E, Nikon). Images having a visual field of 3300 μm (width)×2200 μm (length) were obtained, and relative fluorescence intensities were calculated in the same manner as in Example 5.

Assay [2] relates to WI-38 immortalized normal cells. Briefly: Co-culture in the same visual field, fluorescence of WI-38 cell region. The note with it: Example 11, WI-38 cell line, ALA 2 mmol/l, particles 0.001 w/v %.
Source text: as §1, §2, §3

The test system is the same in assay [3]. Briefly: Discrimination test, fluorescence in WI-38 immortalized normal cells after ALA and particles (separate plates). The note with it: Example 10; WI-38 cell line; ALA 2 mmol/l, particles 0.001 w/v %. How it is done:
Immortalized cell line WI-38 cells (WI-38 VA13 sub 2 RA, JCRB9057) of normal diploid fibroblast cell line WI-38 were prepared. This cell line was subcultured in an MEM medium (MEM, GlutaMAX™ supplement (Thermo Fisher Scientific), 10 v/v % FBS (Thermo Fischer Scientific)). The cultured cells which reached a logarithmic growth phase 3 days or 4 days later were peeled off with Trypsin/EDTA (Thermo Fisher Scientific) and, after the reaction was terminated in an MEM medium, centrifuged. The cell pellet obtained was suspended in an MEM medium. The cell suspension was subjected to measurement of cell density, inoculated onto a 6-well plate at a density of 5.0×10^4 cells/2 ml/well, and cultured for 3 days.
An aqueous ALA solution (50 mmol/l) was mixed into an MEM medium (MEM, GlutaMAX™ supplement (Thermo Fisher Scientific)) to form a 2 mmol/l ALA solution. Further, an aqueous solution of light scattering particles (2) (ii) was mixed into an MEM medium to form a 0.001 w/v % light scattering particle solution.
The media of the T24 cells and the WI-38 cells on 6-well plates, obtained in Example 3, were respectively removed by an aspirator, and detection was performed in the same manner as in Example 4, and relative fluorescence intensities were calculated.

On to `NCC(=O)CCC(=O)O` [fluorescent dye, 5-aminolevulinic acid], for which the Relative fluorescence intensity in assay [1] is 1.6; in assay [2], 1.0; in assay [3], 0.7.
